Measured values: patent publication US4587218A, “Novel bioconverting microorganisms” (priority 1983, dated 1986)

Legend:
[1] = tested on: Cultures ATCC 23342, ATCC 31683, CSV 558 and CUC 014; assay: Sensitivity to nine antibiotics, all four cultures; type: cell-based, Actinoplanes missouriensis; conditions: identical pattern
Method: Temperature range, NaCl and sucrose tolerances, pH range, and antibiotic sensitivity were determined using ISP No. 2 (yeast-malt extract agar) plates. Plates were incubated at 30° C. for 14 days. The temperatures tested were 5°, 10°, 15°, 20°, 25°, 30°, 37°, 40°, 45°, 50° and 55° C.
Antibiotic sensitivity was determined using sensitivity discs padded on the surface of seeded agar plates. The following antibiotics were used: cephalothin (sodium) 30 μg, erythromycin (estolate) 15 μg, chloromycetin 30 μg, novobiocin 30 μg, penicillin (G) 10 units, rifampin 5 μg, streptomycin 10 μg, tetracycline 30 μg and vancomycin 30 μg.

[2] = tested on: mutants (ATCC 31683, CSV 558 and CUC 014); assay: Buffer toxicity at pH 7.0, mutant strains; conditions: all the mutants; buffers 0.05M adjusted to pH 7.0, growth checked
[3] = tested on: wild-type strain (ATCC 23342); assay: Buffer toxicity at pH 7.0, wild-type strain; conditions: buffers 0.05M adjusted to pH 7.0, growth checked

Structure (SMILES): CO[C@@H]1[C@@H](OC(N)=O)[C@@H](O)[C@H](Oc2ccc3c(O)c(NC(=O)c4ccc(O)c(CC=C(C)C)c4)c(=O)oc3c2C)OC1(C)C [Novobiocin]
- sensitivity to nine antibiotics [1]: Resistance

Structure (SMILES): CC1(C)S[C@@H]2[C@H](NC(=O)Cc3ccccc3)C(=O)N2[C@H]1C(=O)O [Penicillin G]
- sensitivity to nine antibiotics [1]: Resistance

Structure (SMILES): O=C(O)CC(O)(CC(=O)O)C(=O)O [citric acid]
- sensitivity to citric acid [2]: sensitive
- sensitivity to citric acid [3]: not sensitive
